Data published in patent US20070043076A1, “Substituted 2-arylmethylene-n-aryl-n'aryl-malonamides and analogs as activators of caspases and inducers of apoptosis” (priority 2003, published 2007).

What was measured:
Jurkat cells = test: Drug induced apoptosis in Jurkat cells (propidium iodide flow cytometry); format: cell-based; details: 24 h
Procedure: FIGS. 1A-C are graphs showing drug induced apoptosis in Jurkat cells. FIG. 1A: control cells (DMSO treated) showing most of the cells in G1 (M2). FIG. 1B: cells treated with 0.5 μM of N,N′-bis-(3-trifluoromethyl-phenyl)-2-(4-isopropyl-benzylidene)-malonamide for 24 h showing 50% of the cells in M1 (subdiploid apoptotic cells). FIG. 1C: cells treated with 1 μM of N,N′-bis-(3-trifluoromethyl-phenyl)-2-(4-isopropyl-benzylidene)-malonamide for 24 h showing 77% of the cells in M1 (subdiploid apoptotic cells).
(§1) Jurkat cells were incubated with N,N′-bis-(3-trifluoromethyl-phenyl)-2-(4-isopropyl-benzylidene)-malonamide (0.5 μM and 1 μM) for 24 h under normal growth conditions; control cultures were treated with DMSO vehicle. Cells were harvested at 1200 rpm and washed twice with 5 mM EDTA/PBS. Cells were then resuspended in 300 μl EDTA/PBS and […] of 100% ethanol, vortexed and incubated at room temperature for 1 h. Samples were spun down at 12000 rpm for 5 min and the supernatant was removed. A solution containing 100 μg/ml of propidium iodide and 1 mg/ml of RNAse A (fresh) was added to the samples and incubated for 1 h at room temperature. Samples were then transferred to 12×75 mm polystyrene tubes and analysed on a flow cytometer. All flow cytometry analyses were performed on FACScalibur (Becton Dickinson) using Cell Quest analysis software.

T47D cells = test: Drug induced apoptosis in T47D cells (propidium iodide flow cytometry); format: cell-based, Human; details: 1.7 μM, 24 h
Procedure: FIGS. 2A-B are graphs showing drug induced apoptosis in T47D cells. FIG. 2A: control cells (DMSO treated) showing most of the cells in G1 (M2). FIG. 2B: cells treated with 1.7 μM of N,N′-bis-(3-trifluoromethyl-phenyl)-2-(4-isopropyl-benzylidene)-malonamide for 24 h showing 88% of the cells in M1 (subdiploid apoptotic cells).
as §1
T47D breast cancer cell line was maintained and harvested as described in Example 105. […] Cells were harvested and treated with propidium iodide and analysed on a flow cytometer as described in Example 107.

T-47D [1] = test: Caspase cascade activation (Ac-DEVD-R110 fluorogenic substrate) in T-47D cells; format: cell-based, Human; details: 24 h incubation
Procedure: (§2) Human breast cancer cell lines T-47D and ZR-75-1 were grown according to media component mixtures designated by American Type Culture Collection +10% FCS (Invitrogen Corporation), in a 5% CO2-95% humidity incubator at 37° C. T-47D and ZR-75-1 cells were maintained at a cell density between 30 and 80% confluency and for HL-60 at a cell density of 0.1 to 0.6×10^6 cells/mL. Cells were harvested at 600×g and resuspended at 0.65×10^6 cells/mL into appropriate media +10% FCS. An aliquot of 45 μL of cells was added to a well of a 96-well microtiter plate containing 5 μL of a 10% DMSO in RPMI-1640 media solution containing 1.6 to 100 μM of N,N′-bis-(3-trifluoromethyl-phenyl)-2-(4-isopropyl-benzylidene)-malonamide or other test compound (0.16 to 10 μM final). An aliquot of 45 μL of cells was added to a well of a 96-well microtiter plate containing 5 μL of a 10% DMSO in RPMI-1640 media solution without test compound as the control sample. The samples were mixed by agitation and then incubated at 37° C. for 24 h in a 5% CO2-95% humidity incubator. After incubation, the samples were removed from the incubator and […] of a solution containing 20 μM of N-(Ac-DEVD)-N′-ethoxycarbonyl-R110 fluorogenic substrate (SEQ ID NO:1) (Cytovia, Inc.; U.S. Pat. No. 6,335,429), 20% sucrose (Sigma), 20 mM DTT (Sigma), 200 mM NaCl (Sigma), 40 mM Na PIPES buffer pH 7.2 (Sigma), and 500 μg/mL lysolecithin (Calbiochem) was added. The samples were mixed by agitation and incubated at room temperature. Using a fluorescent plate reader (Model 1420 Wallac Instruments), an initial reading (T=0) was made approximately 1-2 min after addition of the substrate solution, employing excitation at 485 nm and emission at 530 nm, to determine the background fluorescence of the control sample. After approximately 3 h of incubation, the samples were read for fluorescence as above (T=3 h).
(§3) The relative Fluorescence Unit values (RFU) were used to calculate the sample readings as follows: RFU(T=3h)−Control RFU(T=0)=Net RFU(T=3h)
(§4) The activity of caspase cascade activation was determined by the ratio of the net RFU value for N,N′-bis-(3-trifluoromethyl-phenyl)-2-(4-isopropyl-benzylidene)-malonamide to that of control samples. The EC50 (nM) was determined by a sigmoidal dose-response calculation (Prism 2.0, GraphPad Software Inc.).

DLD-1 = test: Inhibition of cell proliferation (GI50, CellTiter 96 AQueous One) in DLD-1 cells; format: cell-based; details: Homo sapiens, 48 h incubation, read-out: GI50 (dose for 50% inhibition of cell proliferation)
Procedure: (§5) T-47D and DLD-1 cells were grown and harvested as in Example 105. An aliquot of 90 μL of cells (2.2×10^4 cells/mL) was added to a well of a 96-well microtiter plate containing 10 μl of a 10% DMSO in RPMI-1640 media solution containing 1 nM to 100 μM of N,N′-bis-(3-trifluoromethyl-phenyl)-2-(4-isopropyl-benzylidene)-malonamide (0.1 nM to 10 μM final). An aliquot of 90 μL of cells was added to a well of a 96-well microtiter plate containing 10 μL of a 10% DMSO in RPMI-1640 media solution without compound as the control sample for maximal cell proliferation (AMax). The samples were mixed by agitation and then incubated at 37° C. for 48 h in a 5% CO2-95% humidity incubator. After incubation, the samples were removed from the incubator and 20 μL of CellTiter 96 AQUEOUS One Solution Cell Proliferation™ reagent (Promega) was added. The samples were mixed by agitation and incubated at 37° C. for 2-4 h in a 5% CO2-95% humidity incubator. Using an absorbance plate reader (Model 1420 Wallac Instruments), an initial reading (T=0) was made approximately 1-2 min after addition of the solution, employing absorbance at 490 nm. This determines the possible background absorbance of the test compounds. No absorbance for N,N′-bis-(3-trifluoromethyl-phenyl)-2-(4-isopropyl-benzylidene)-malonamide was found at 490 nm. After the 2-4 h incubation, the samples were read for absorbance as above (ATest).
(§6) Baseline for GI50 (dose for 50% inhibition of cell proliferation) of initial cell numbers were determined by adding an aliquot of 90 μL of cells or 90 μL of media, respectively, to wells of a 96-well microtiter plate containing 10 μL of a 10% DMSO in RPMI-1640 media solution. The samples were mixed by agitation and then incubated at 37° C. for 0.5 h in a 5% CO2-95% humidity incubator. After incubation, the samples were removed from the incubator and 20 μL of CellTiter 96 AQUEOUS One Solution Cell Proliferation™ reagent (Promega) was added. The samples were mixed by agitation and incubated at 37° C. for 2-4 h in a 5% CO2-95% humidity incubator. Absorbance was read as above, (AStart) defining absorbance for initial cell number used as baseline in GI50 determinations.
(§7) GI50 (dose for 50% inhibition of cell proliferation) is the concentration where [(ATest−AStart)/(AMax−AStart)]=0.5.

ZR-75-1 = test: Caspase cascade activation (Ac-DEVD-R110 fluorogenic substrate) in ZR-75-1 cells; format: cell-based, Human; details: 24 h incubation
Procedure: as §2, §3, §4

T-47D [2] = test: Inhibition of cell proliferation (GI50, CellTiter 96 AQueous One) in T-47D cells; format: cell-based; details: Homo sapiens, T47D, 48 h incubation, read-out: GI50 (dose for 50% inhibition of cell proliferation)
Procedure: as §5, §6, §7

[3] = ratio of net RFU to that of control samples

CC(C)c1ccc(C=C(C(=O)Nc2cccc(C(F)(F)F)c2)C(=O)Nc2cccc(C(F)(F)F)c2)cc1 [Example 3, N,N′-Bis-(3-trifluoromethyl-phenyl)-2-(4-isopropyl-benzylidene)-malonamide]
induction of apoptosis (in words) (Jurkat cells; 0.5 μM and 1 μM): induces massive apoptosis | cells in M1 (subdiploid apoptotic cells) (Jurkat cells; 0.5 μM): 50% | cells in M1 (subdiploid apoptotic cells) (Jurkat cells; 1 μM): 77% | cells in M1 (subdiploid apoptotic cells) (T47D cells): 88% | induction of apoptosis (in words) (T47D cells): induces massive apoptosis | Caspase Activity Ratio (T-47D [1]; [3]): 15 | EC50 (T-47D [1]; Homo sapiens, T47D, 0.16 to 10 μM final, read-out: Caspase potency EC50): 867 nM | GI50 (DLD-1): 200 nM | Caspase Activity Ratio (ZR-75-1; [3]): 17 | EC50 (ZR-75-1; Homo sapiens, 0.16 to 10 μM final, read-out: Caspase potency EC50): 1400 nM | GI50 (T-47D [2]): 180 nM
